Assay [1] deals with T1, von Hippel-Lindau disease tumor suppressor/Androgen receptor (Homo sapiens, UniProt P10275+P40337). Nature of the assay: Protac activity at VHL/Androgen receptor in human LNCaP cells assessed as Androgen receptor degradation. The format is cell-based.
Target sequence in this assay (P40337 whole entry, one chain of several): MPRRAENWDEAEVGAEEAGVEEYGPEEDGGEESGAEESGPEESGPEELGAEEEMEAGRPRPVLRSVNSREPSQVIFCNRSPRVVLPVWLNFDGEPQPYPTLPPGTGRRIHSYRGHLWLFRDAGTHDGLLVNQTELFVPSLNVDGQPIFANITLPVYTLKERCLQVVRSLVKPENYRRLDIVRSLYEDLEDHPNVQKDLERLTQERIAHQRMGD
The target in assay [2] is T1, von Hippel-Lindau disease tumor suppressor/Androgen receptor. Nature of the assay: Protac activity at VHL/Androgen receptor in human VCaP cells assessed as Androgen receptor degradation. The format is cell-based.
Target sequence in this assay (P40337 whole entry, one chain of several): as above
The target is the same in assay [3]. Nature of the assay: Protac activity at VHL (unknown origin)/Androgen receptor (unknown origin) assessed as full-length Androgen receptor degradation measured by immunoblotting method. The format is protein assay. (In western blotting, separated proteins are transferred to a membrane and probed.)
Target sequence in this assay (P40337 whole entry, one chain of several): as above
For assay [4] the target is unchanged. Kind of assay: Protac activity at VHL (unknown origin)/Androgen receptor splice variant7 (unknown origin) assessed as Androgen receptor degradation measured by immunoblotting method.
Target sequence in this assay (P40337 whole entry, looked up, change not shown, one chain of several): as the sequence (P40337 whole entry, one chain of several) above
For assay [5], the target named is T2, Androgen receptor (Homo sapiens, UniProt P10275).
T2 sequence (P10275 whole entry): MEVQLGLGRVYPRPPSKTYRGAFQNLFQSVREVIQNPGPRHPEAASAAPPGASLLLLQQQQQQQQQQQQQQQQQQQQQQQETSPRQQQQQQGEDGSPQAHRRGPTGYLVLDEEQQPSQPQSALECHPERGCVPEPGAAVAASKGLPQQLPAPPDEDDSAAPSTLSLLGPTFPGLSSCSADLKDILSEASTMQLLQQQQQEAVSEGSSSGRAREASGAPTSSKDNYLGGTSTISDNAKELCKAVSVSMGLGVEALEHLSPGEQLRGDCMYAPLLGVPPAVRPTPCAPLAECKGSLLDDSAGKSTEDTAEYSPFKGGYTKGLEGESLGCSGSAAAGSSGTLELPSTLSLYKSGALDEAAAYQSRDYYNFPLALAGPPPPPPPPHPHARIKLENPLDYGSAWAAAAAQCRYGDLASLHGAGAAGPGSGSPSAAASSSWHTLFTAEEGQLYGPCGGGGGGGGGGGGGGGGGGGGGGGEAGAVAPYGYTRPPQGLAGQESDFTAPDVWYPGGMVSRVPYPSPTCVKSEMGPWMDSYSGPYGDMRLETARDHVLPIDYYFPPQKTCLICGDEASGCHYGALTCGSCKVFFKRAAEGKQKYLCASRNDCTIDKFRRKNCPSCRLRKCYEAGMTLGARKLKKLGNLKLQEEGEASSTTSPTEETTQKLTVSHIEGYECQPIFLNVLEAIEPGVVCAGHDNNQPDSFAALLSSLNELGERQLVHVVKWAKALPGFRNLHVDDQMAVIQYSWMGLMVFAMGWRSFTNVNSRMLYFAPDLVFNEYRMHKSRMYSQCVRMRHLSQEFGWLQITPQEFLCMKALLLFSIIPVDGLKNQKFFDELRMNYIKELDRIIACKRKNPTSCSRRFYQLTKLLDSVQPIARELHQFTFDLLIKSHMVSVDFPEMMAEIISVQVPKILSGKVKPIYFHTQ
Kind of assay: Antagonist activity at Androgen receptor in human LNCaP cells assessed as inhibition of Binding Function 3 (BF3) of AR measured by luciferase assay. The format is cell-based.

The target of assay [6] is Androgen receptor (Rattus norvegicus, UniProt P15207).
Description: Binding affinity to rat Androgen receptor ligand binding domain measured by competitive ligand binding assay
In assay [7] the test system is LNCaP. Kind of assay: Antiproliferative activity against human LNCaP cells. The format is functional, cell-based.
Another assay relates to MR49F. Kind of assay: Antiproliferative activity against human MR49F cells. In kind it is functional, cell-based.
Assay [8] can be described thus: Inhibition of human LNCaP cell growth at 10 uM measured after 24 hrs by AlamarBlue staining method. In kind it is functional. (In general: Alamar Blue is a resazurin reagent that responds to reducing activity.)
The target of assay [9] is T3, Androgen receptor (Homo sapiens) (UniProt P10275).
T3 sequence (whole entry): T2 sequence (P10275 whole entry)
Nature of the assay: Antagonist activity at Androgen receptor in human LNCaP cells assessed as inhibition of PSA expression at 10 uM measured by ELISA assay. The format is cell-based. Set-up: scale not given: the % may be the effect or the level left.

Assay [10] has as its target Protein cereblon/Androgen receptor (Homo sapiens, UniProt P10275+Q96SW2). Nature of the assay: Protac activity at CRBN/Androgen receptor in human LNCaP cells assessed as Androgen receptor degradation. In kind it is cell-based.
Assay [11] has as its target T2, Androgen receptor. Nature of the assay: Antagonist activity at Androgen receptor in human LNCaP cells assessed as inhibition of Binding Function 3 (BF3) of AR measured by enhanced green fluorescent protein transcriptional (eGFPT) assay. The format is cell-based.
For assay [12], the target named is T3, Androgen receptor (Homo sapiens). Kind of assay: Antagonist activity at Androgen receptor (unknown origin) at 10 uM relative to control. Set-up: scale not given: the % may be the effect or the level left. The note with it: filed as antagonist.
Assay [13] has the same target. Nature of the assay: Agonist activity at Androgen receptor (unknown origin) in presence of DHT.
Assay [14] has as its system LNCaP. Kind of assay: Antiproliferative activity against human LNCaP cells after 5 days by MTS assay. The note with it: time 5 day. In kind it is functional.
The next assay concerns HEK-293T. Kind of assay: Antiproliferative activity against NTD-over expressed human HEK293T cells after 5 days by MTS assay. The format is functional, cell-based. The note with it: 120 h. In general terms: Tetrazolium dyes change colour on reduction, which living cells bring about.
A further assay relates to LNCaP C4-2. Nature of the assay: Antiproliferative activity against AR-independent human LNCaP C4-2 cells after 5 days by MTS assay. In kind it is functional, cell-based. As to conditions: LNCaP C4-2, 120 h.
Assay [15] is described as follows: Antiproliferative activity against AR-independent human CWR22Rv cells after 5 days by MTS assay. The format is functional, cell-based. As to conditions: 120 h.
Assay [16] is described as follows: Antitumor activity against human CWR22Rv cells xenografted in mouse at 10 mg/kg, ip administered for 21 days. The format is functional. The note with it: time 21 day.

The source of these data is ChEMBL document CHEMBL5137058, “Therapeutic Strategies to Target the Androgen Receptor” (J Med Chem, 2022).

A value given as a limit tells only on which side of the number the result lay.

As a reminder, the DC50 is the concentration giving 50% degradation. A word on the IC50: it is the concentration that inhibits the measured activity by half. For orientation: Ki means the dissociation constant of the complex between target and ligand, obtained from inhibition or displacement. In general, inhibition refers to how much of the control response was suppressed. The term T/C denotes the result in the treated group divided by that in the control group, in per cent.

Chain of Protein cereblon/Androgen receptor (Q96SW2 whole entry, one chain of several): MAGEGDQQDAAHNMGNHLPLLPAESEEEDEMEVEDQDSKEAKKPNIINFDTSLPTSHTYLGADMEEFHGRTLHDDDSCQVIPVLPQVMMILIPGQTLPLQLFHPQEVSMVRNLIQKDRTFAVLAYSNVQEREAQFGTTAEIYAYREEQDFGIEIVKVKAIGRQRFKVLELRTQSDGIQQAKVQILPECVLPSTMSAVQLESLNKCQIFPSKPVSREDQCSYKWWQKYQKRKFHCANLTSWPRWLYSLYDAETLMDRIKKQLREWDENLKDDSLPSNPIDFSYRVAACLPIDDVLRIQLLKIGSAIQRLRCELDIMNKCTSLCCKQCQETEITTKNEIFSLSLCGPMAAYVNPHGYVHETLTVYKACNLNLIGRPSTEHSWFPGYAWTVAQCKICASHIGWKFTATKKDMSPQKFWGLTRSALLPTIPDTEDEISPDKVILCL
Chain of Androgen receptor (Rattus norvegicus, UniProt P15207) (P15207 whole entry S389L): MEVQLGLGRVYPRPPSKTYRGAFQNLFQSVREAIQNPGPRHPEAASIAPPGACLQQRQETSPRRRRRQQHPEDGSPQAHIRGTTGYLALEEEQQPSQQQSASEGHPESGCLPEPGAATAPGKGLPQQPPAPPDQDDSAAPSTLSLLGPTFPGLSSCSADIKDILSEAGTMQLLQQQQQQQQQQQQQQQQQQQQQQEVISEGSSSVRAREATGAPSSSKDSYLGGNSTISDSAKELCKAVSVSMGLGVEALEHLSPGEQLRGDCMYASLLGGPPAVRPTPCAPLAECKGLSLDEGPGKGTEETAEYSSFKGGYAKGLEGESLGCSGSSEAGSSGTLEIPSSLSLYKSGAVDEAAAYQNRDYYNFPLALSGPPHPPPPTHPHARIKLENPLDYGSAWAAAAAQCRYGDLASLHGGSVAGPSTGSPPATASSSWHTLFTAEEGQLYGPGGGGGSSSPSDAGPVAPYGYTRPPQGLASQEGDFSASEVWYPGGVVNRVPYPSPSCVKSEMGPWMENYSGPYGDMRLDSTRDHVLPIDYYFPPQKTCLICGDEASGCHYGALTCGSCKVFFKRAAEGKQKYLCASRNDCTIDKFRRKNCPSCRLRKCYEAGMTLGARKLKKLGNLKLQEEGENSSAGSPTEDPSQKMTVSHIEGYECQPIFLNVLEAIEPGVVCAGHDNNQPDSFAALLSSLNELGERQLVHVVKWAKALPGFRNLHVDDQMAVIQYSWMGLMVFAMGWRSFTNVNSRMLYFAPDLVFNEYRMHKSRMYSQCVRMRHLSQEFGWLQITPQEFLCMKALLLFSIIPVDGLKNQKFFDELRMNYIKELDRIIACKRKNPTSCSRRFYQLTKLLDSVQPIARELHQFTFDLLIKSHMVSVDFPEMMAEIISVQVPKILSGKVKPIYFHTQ

As to `Cc1ncsc1-c1ccc([C@H](CC(=O)N2CCC(N3CCC(C#Cc4ccc(C(=O)N[C@H]5C(C)(C)[C@H](Oc6ccc(C#N)c(Cl)c6)C5(C)C)cc4)CC3)CC2)NC(=O)[C@@H]2C[C@@H](O)CN2C(=O)[C@@H](NC(=O)C2(F)CC2)C(C)(C)C)cc1`, the DC50 in assay [1] and in assay [2] was less than 1 nM throughout.

Regarding `Cc1ncsc1-c1ccc([C@H](C)NC(=O)[C@@H]2C[C@@H](O)CN2C(=O)[C@@H](NC(=O)CCCCNC(=O)COc2c(-c3csc(N4CCOCC4)n3)ccc(F)c2F)C(C)(C)C)cc1`, the DC50 in assay [3] is 2000 nM; in [4], 370 nM.

Turning to `CCS(=O)(=O)Nc1cccc(-c2cc(=O)n(-c3ccc(Cl)c(Cl)c3)nc2C)c1`, the IC50 at Androgen receptor [5] worked out at 6260 nM.

In the case of `C[C@](O)(Cn1ccc2cc(F)ccc21)C(=O)Nc1ccc(C#N)c(C(F)(F)F)c1`, at Androgen receptor [6], the Ki is greater than 10000 nM.

With `Brc1ncn(-c2csc(N3CCOCC3)n2)c1Br`, the IC50 in the assay on LNCaP [7] and in the assay on MR49F was less than 500 nM throughout.

`COc1cc(/C=N/NC(=O)c2cc3c(ccc4ccccc43)o2)cc(OC)c1O` had an inhibition at 10 µM in assay [8] of 30%. Also, the Activity in [9] was 30%.

Turning to `C[C@](O)(COc1ccc(OCCOCCOc2cccc3c2C(=O)N(C2CCC(=O)NC2=O)C3=O)cc1)C(=O)Nc1ccc(I)c(C#N)c1` (some centres undefined), the DC50 in assay [10] was determined as 5200 nM.

Take `CC(C)C(NC(=O)c1cc2ccc(F)cc2[nH]1)c1ccco1` (centres undefined): the IC50 on Androgen receptor [11] amounted to 430 nM.

As for `CCOc1ccc2c(c1OC(C)C)CCN(c1ccc(C(=O)Nc3cccc(C)n3)cn1)C2`, the figures for the Activity (in assay [12]; in assay [13]; with LNCaP [14]) were greater than 95%, less than 5% and greater than 90%, respectively. Also, the values for the IC50 (with HEK-293T; in the assay with LNCaP C4-2; in assay [15]) were 780 nM, 1000 nM and 1000 nM, respectively. For the same compound, the T/C in assay [16] is given as 65%.
